The test system of this test is automated midbrain organoids (AMOs). In words: 3D toxicology assay: cCasp3/Sox2 whole mount immunostaining and high content imaging of G418-treated organoids. Format: cell-based, human. The note with it: AMOs treated for 4 days starting at day 50 of culture; 0-1000 μg/mL; cCasp3+ cells normalized by aggregate area. Here is the method: In order to analyze protein expression in 3D in a HTS-compatible manner, we adapted a whole mount staining protocol based on Lee et al. ACT-PRESTO: Rapid and consistent tissue 579 clearing and labeling method for 3-dimensional (3D) imaging. Sci Rep 6, 18631 (2016) for organoids and optimized it for use in an automated liquid handling system. After fixation with 4% PFA (VWR) for 10-15 minutes, we stained the organoids with primary and secondary antibodies (Alexa Fluor secondary antibodies, Thermo Fisher) for 6 days each. We diluted the antibodies in a blocking and permeabilization solution (6% BSA, 0.5% Triton-X 100 (Roth), 0.1% (w/v) sodium azide (Sigma-Aldrich) in PBS (Sigma-Aldrich)) and renewed it every 2 days. Between primary and secondary antibody incubation as well as after the staining procedure we washed the organoids 5 times for 1 h with 0.1% Triton X-100 in PBS. […]
After staining and clearing, we achieved uniform aggregate positioning within the wells by tilting the plates off the horizontal plane at 60 degrees for 1 minute. Image acquisition was carried out in an Operetta high content imager (Perkin Elmer) and images were analyzed in Harmony 4.1 software. […] We excluded image artifacts, small dust particles, and overlapping nuclei by omitting nuclei brighter than 6000 abu and larger than 70 μm2 from further quantification. […]

With `CN[C@@H]1[C@@H](O)[C@@H](O[C@@H]2[C@@H](O)[C@H](O[C@H]3O[C@H]([C@@H](C)O)[C@@H](O)[C@H](O)[C@H]3N)[C@@H](N)C[C@H]2N)OC[C@]1(C)O` [G418], the “IC50 from dose-response curve of number of apoptotic cCasp3+ cells against logarithmic drug concentration” value was 339 μg/mL.

These data come from patent US20220049219A1, “AUTOMATED GENERATION AND ANALYSIS OF ORGANOIDS” (Max-Planck-Gesellschaft zur Förderung der Wissenschaften …, priority 2018, published 2022).
